“Also recorded” adds a separate entry of the source.

Series [1] deals with human erythrocytes. As to the kind of experiment: Hemolytic activity in human erythrocytes. The following applies: for hemolytic activity (in words): tested concentrations 100–0.78 µM. In kind it is cell-based. On the procedure:
The hemolytic activity of the compounds 4a–b was evaluated using an adaptation of the method described by Van de Ven (2012). Blood samples were adjusted to a 5% erythrocyte concentration, taking into account the hematocrit differences between males (40–50% ≈ 45%) and females (35–45% ≈ 40%). Compounds were added to 96-well plates at serial dilutions (100 to 0.78 µM), while AmB was tested at concentrations ranging from 400 to 3.12 µM as a reference. After 1 h of incubation at 37 °C in a 5% CO2 incubator, 100 µL of phosphate-buffered saline (PBS) was added to each well. Plates were centrifuged (112× g, 10 min, 25 °C), and supernatants were transferred to a mirrored 96-well plate. Hemoglobin release, reflecting erythrocyte lysis, was quantified by measuring absorbance at 540 nm. The assay was performed in three independent experiments, with results expressed as mean hemolytic concentration (HC50). Ultrapure water (Direct-Q UV, Guyancourt, France) served as the positive control (100% hemolysis).

Series [2] concerns L. infantum axenic amastigotes. As to the kind of experiment: Synergistic activity of 4b with AmB (Chou-Talalay) against axenic amastigotes. In kind it is cell-based, Leishmania infantum. The following applies: of each drug within the 1:5 AmB:4b combination. On the procedure:
The nature of the drug interaction (synergistic, additive, or antagonistic) was evaluated using the Chou–Talalay method implemented in CompuSyn software (ComboSyn Incorporated, version 1.0.1, 2006–2023). This approach calculates the Combination Index (CI) based on dose–response data fitted to the median-effect equation, with parameters including Dm (median-effect dose), m (slope of the dose–effect curve), and r (linear correlation coefficient). To characterize the interaction at different effect levels, CI values were determined for the following effective doses: ED50, ED75, and ED90, corresponding to 50%, 75%, and 90% inhibition of cell viability, respectively. Interactions were interpreted as synergistic when CI < 1, additive when CI = 1, and antagonistic when CI > 1. Additionally, the dose reduction index (DRI) was calculated to estimate the amount of dose reduction that could be achieved for each drug in combination while maintaining the same level of efficacy; […]

For series [3], the system named is L. infantum axenic amastigotes. The series is described as follows: In vitro leishmanicidal activity (MTT) in axenic amastigote forms. The following applies: for IC50: axenic amastigotes, 24 h treatment, MTT. In kind it is cell-based, Leishmania infantum. On the procedure:
(§1) Promastigote forms of L. infantum [IOC/L0579 (MHOM/BR/1974/PP75)] were cultured in Schneider’s medium (pH 7.0), supplemented with 20% fetal bovine serum (FBS), 1% human male urine, and 1% antibiotic solution (penicillin 200 U/mL and streptomycin 0.1 mg/mL), and maintained at 26 ± 1 °C (B.O.D SL 200—SOLAB, Piracicaba, SP, BR). The generation of extracellular axenic amastigote forms of L. infantum was based on protocols previously described by Debrabant et al. (2004), with modifications that included the use of Schneider’s medium adjusted to pH 5.5 and incubation at 37 °C (CO2 Series 3517-2, Cornelius, OR, USA).
(§2) In 96-well plates, initial screening was performed with serial dilutions (400 to 3.12 μM) of compounds 3a–c and 4a–c in duplicate. […] AmB was used as a positive control due to its established leishmanicidal activity, tested at concentrations ranging from 10 to 0.078 μM. Following 72 h-treatment of promastigotes and 24 h-treatment of amastigotes (accounting for the stationary phase culture characteristics), MTT was added for 4 h, followed by overnight incubation with sodium dodecyl sulfate (SDS) for spectrophotometric (Biotek model ELx800, Winooski, VT, USA) reading at 540 nm.

The subject of series [4] is human PBMCs. The series is described as follows: Cytotoxicity (MTT) in peripheral blood mononuclear cells. In kind it is cell-based. As to the method: (§3) For the PBMCs assay, blood samples from three healthy volunteers were processed using Ficoll density gradient centrifugation (980× g) for 20 min at 25 °C. The PBMCs layer was collected, washed with sterile 1× PBS (300× g, 10 min, 4 °C), and resuspended in RPMI medium (Sigma-Aldrich) supplemented with 10% FBS and 1% antibiotic. Adjusted PBMCs were plated in 96-well plates and incubated with serial dilutions of the compounds (1000 to 7.8 µM) and AmB (100 to 0.78 µM) for 24 h (37 °C, 5% CO2). MTT was then added for 4 h, followed by centrifugation (300× g, 10 min) at 4 °C, supernatant removal, and DMSO addition for spectrophotometric reading at 540 nm.

Experiment in series [5]: as above
In kind it is cell-based, human. The following applies: human, peripheral blood mononuclear cells (PBMCs), 24 h; for CC50 at 24 h: PBMCs, MTT; for viability at 24 h, 250 µM: at 250 μM; for viability at 24 h, 500 µM: at 500 μM. As to the method:
as §3

The subject of series [6] is L. infantum promastigotes. As to the kind of experiment: In vitro leishmanicidal activity (MTT) in promastigote forms. It is filed as cell-based, Leishmania infantum. Conditions: for IC50: 72 h treatment, MTT. As to the method: as §1
The antileishmanial activity of compounds against metacyclic promastigote populations was assessed using the MTT (ACROS, Livingston, NJ, USA) assay for cell viability analysis. During testing, L. infantum (IOC/L0579) cultures were maintained in vitro in supplemented Schneider’s (Sigma-Aldrich, St. Louis, MO, USA) medium (pH 7.0) at 26 ± 1 °C in a biological oxygen demand (BOD) incubator.
as §2

Where [7] appears, read: at the highest concentration, 72 h.
The mark [8] stands for this setting: at the lowest doses / lower concentrations, 72 h.

Take `C[C@@H]1[C@H](O)[C@@H](C)/C=C/C=C/C=C/C=C/C=C/C=C/C=C/[C@H](O[C@@H]2O[C@H](C)[C@@H](O)[C@H](N)[C@@H]2O)C[C@@H]2O[C@](O)(C[C@@H](O)C[C@@H](O)[C@H](O)CC[C@@H](O)C[C@@H](O)CC(=O)O[C@H]1C)C[C@H](O)[C@H]2C(=O)O` [AmB, Amphotericin B, reference compound]: in series [1] (5% erythrocytes, 1 h, 37 °C), the “50% hemolytic concentration (HC50)” value is 193.4 µM. Besides, the “dose reduction index (DRI) at IC50” value in series [2] worked out at 2.87. Besides, the values for the IC50 in series [3] (Leishmania infantum) and in series [6] (Leishmania infantum) were 0.89 µM and 0.87 µM, respectively. Besides, the CC50 in series [4] (PBMCs, 24 h, MTT) came to 29.9 µM. For the same compound, the CC50 at 24 h in series [5] was determined as 29.9 µM. The viability at 24 h, 25 µM in series [5] (at 25 μM, read-out: PBMC viability) was found to be 61.9%. For the same compound, the viability at 24 h, 50 µM in series [5] (at 50 μM, read-out: PBMC viability) was 40.8%. Also, the viability at 24 h, 100 µM in series [5] (at 100 μM, read-out: PBMC viability) turned out to be 30.4%.

For `O=C(COc1ccc(/C=C/C(=O)c2ccc(Br)cc2)cc1)NC1CCCCC1` [Compound 4c, (E)-2-(4-(3-(4-Bromophenyl)-3-oxoprop-1-enyl)phenoxy)-N-cyclohexylacetamide], in series [3] (24 h), the “activity against amastigotes (in words)” value is reported as “no detectable activity; also recorded: no inhibitory effect”. Besides, the midpoint of inhibition in series [6] (Leishmania infantum), the IC50, lay at 45.8 µM. Besides, the results for the promastigote viability in series [6] (setting [7]) and in series [6] (setting [8]) were 21.93% and 100%, respectively.

On to `Cc1ccc(C(=O)/C=C/c2ccc(OCC(=O)NC3CCCCC3)cc2)cc1` [Compound 4a, (E)-N-Cyclohexyl-2-(4-(3-oxo-3-p-tolylprop-1-enyl)phenoxy)acetamide], for which, in series [1], the “hemolytic activity (in words)” value is reported as “no hemolytic activity”. This compound also displayed a viability at 12.5 µM in series [3] (Leishmania infantum, at 12.5 µM, 24 h) of 80.2%. The same compound returned a viability at 25 µM in series [3] (Leishmania infantum, at 25 µM, 24 h) of 30.8%. The compound further returned a viability at 50 µM in series [3] (Leishmania infantum, at 50 µM, 24 h) of 23.5%. Further, the IC50 in series [3] (Leishmania infantum) stood at 19.7 µM; in series [6] (Leishmania infantum), 12.9 µM. Also, the CC50 at 24 h in series [5] was 157 µM. Moreover, in series [5] (at 125 μM, read-out: PBMC viability), the viability at 24 h, 125 µM is 61.2%. Also, in series [5] (read-out: PBMC viability), the viability at 24 h, 250 µM is 33%. Moreover, the viability at 24 h, 500 µM in series [5] (read-out: PBMC viability) came out at 33.4%. Moreover, the results for the promastigote viability in series [6] (setting [7]) and in series [6] (setting [8]) were 20.77% and 100%, respectively.

In the case of `COc1ccc(C(=O)/C=C/c2ccc(OCC(=O)NC3CCCCC3)cc2)cc1` [Compound 4b, (E)-N-Cyclohexyl-2-(4-(3-(4-methoxyphenyl)-3-oxoprop-1-enyl)phenoxy)acetamide], in series [1], the “hemolytic activity (in words)” value was “no hemolytic activity”. Also, the “dose reduction index (DRI) at IC50” value in series [2] worked out at 1.28. The viability at 1.56 µM in series [3] (Leishmania infantum, at 1.56 µM, 24 h) was determined as 85.5%. Besides, the viability at 3.12 µM was 60.8% in series [3] (Leishmania infantum, at 3.12 µM, 24 h) and 79.3% in series [6] (Leishmania infantum, at 3.12 µM, 72 h). For the same compound, the viability at 6.25 µM in series [3] (Leishmania infantum, at 6.25 µM, 24 h) amounted to 9.12%; in series [6] (Leishmania infantum, at 6.25 µM, 72 h), 34.2%. Also, the half-maximal inhibitory concentration (IC50) came to 3.4 µM in series [3] (Leishmania infantum) and 7.02 µM in series [6] (Leishmania infantum). The “PBMC cytotoxicity versus negative controls (in words)” value in series [4] (25–100 μM) is listed as “negligible cytotoxicity”. The CC50 at 24 h in series [5] turned out to be 505 µM. The viability at 24 h, 250 µM in series [5] (read-out: PBMC viability) came out at 65.1%. In addition, in series [5] (read-out: PBMC viability), the viability at 24 h, 500 µM is 55.2%. Also, the viability at 24 h, 1000 µM in series [5] (at 1000 μM, read-out: PBMC viability) was determined as 31.8%. The same compound came in with a viability at 12.5 µM in series [6] (Leishmania infantum, at 12.5 µM, 72 h) of 24.3%.

What is called IC50 is the concentration needed to halve the response being measured. The low end stands for higher potency, the high end for lower potency. One may read the CC50 as the concentration giving 50% cytotoxicity. Low values mean harm at low concentration, high ones better tolerance by the cells. As a reminder, the viability is a read-out of living cells in per cent, often relative to untreated cells.
